Reference: patent US20240299420A1, “TETRACYCLINE DERIVATIVE-INDUCED MITOHORMESIS MEDIATES DISEASE TOLERANCE AGAINST VIRAL INFECTIONS” (priority 2021, published 2024)

Tests used:
[1] = tested on: hsp-6::gfp reporter (UPR^mt); assay type: in vivo, Caenorhabditis elegans; conditions: for Activity in Worm Assay: UPR^mt induction, C. elegans hsp-6::gfp reporter, compounds at 68 µM; for induction of MSR and in particular mitohormesis: summary of screen of 51 tetracycline derivatives; for UPR^mt activation (hsp-6::gfp reporter): 68 µM, 9-TB at 17 μM
E. coli = assay: Minimum inhibitory concentration (MIC) of bacterial growth; assay type: cell-based; conditions: compared with Dox
P. aeruginosa = assay: as above; assay type: cell-based; conditions: compared with Dox
[2] = tested on: mouse bone marrow derived macrophages (BMDM); assay: IFNβ measurement in BMDM culture medium (ELISA); assay type: cell-based; conditions: ddC 100 μM for 72 hours, Dox 30 μg/ml for 14 hours

4-oxime minocycline
Activity in Worm Assay [1]: inactive

7,9-bis(2,6-difluoro-4-pyridynyl)-sancycline [7,9-bis3POyr26 diF dox]
induction of MSR and in particular mitohormesis [1]: strongly induce MSR | MIC for E. coli (E. coli): significantly higher MIC | MIC for P. aeruginosa (P. aeruginosa): significantly higher MIC

8-bromo sancycline
induction of MSR and in particular mitohormesis [1]: strongly induce MSR | MIC for E. coli (E. coli): significantly higher MIC | MIC for P. aeruginosa (P. aeruginosa): significantly higher MIC

11,12-pyrazolo doxycycline
Activity in Worm Assay [1]: inactive

CN(C)c1ccc(O)c2c1C[C@H]1C[C@H]3[C@H](N(C)C)C(O)=C(C(N)=O)C4=NNC(O)(C1C2=O)[C@]43O (stereo partly drawn) [1,12-hydroxypyrazolo minocycline]
Activity in Worm Assay [1]: inactive

CN(C)c1ccc(O)c2c1C[C@H]1C[C@H]3[C@H](N(C)C)C(O)=C(C#N)C(=O)[C@@]3(O)C(O)=C1C2=O [2N nitrile minocycline]
Activity in Worm Assay [1]: inactive

C=C1C(=O)c2c(O)ccc(N(C)C)c2C[C@H]1C[C@H](C)[C@@H](C)N(C)C [2N-1,1′-dimethylbutane minocycline]
Activity in Worm Assay [1]: slight

C[C@H]1c2cccc(O)c2C(=O)C2=C(O)[C@]3(O)C(=O)C(C#N)=C(O)[C@@H](N(C)C)[C@@H]3[C@@H](O)[C@@H]21 [2N-nitrile doxycycline]
Activity in Worm Assay [1]: inactive

NC(=O)C1=C(O)C[C@@H]2C[C@@H]3Cc4ccc(N)c(O)c4C(=O)C3=C(O)[C@]2(O)C1=O [4-dedimethyl-amino-9-amino sancycline]
Activity in Worm Assay [1]: inactive

CN(C)c1ccc(O)c2c1C[C@H]1C[C@H]3CC(O)=C(C(N)=O)C(=O)[C@@]3(O)C(O)=C1C2=O [4-dedimethylamino minocycline]
Activity in Worm Assay [1]: inactive

CN(C)c1cc(N)c(O)c2c1C[C@H]1C[C@H]3CC(O)=C(C(N)=O)C(=O)[C@@]3(O)C(O)=C1C2=O [4-dedimethylamino-9-aminominocycline]
Activity in Worm Assay [1]: inactive

CN(C)[C@@H]1C(O)=C(C(N)=O)C(=O)[C@@]2(O)C(O)=C3C(=O)c4c(O)cccc4C(CSC4CCCC4)[C@H]3[C@H](OC(=O)C3CCCC3)[C@@H]12 (stereo partly drawn) [5-cyclopentanoate-13-cyclopentylthio dihydro methacycline]
Activity in Worm Assay [1]: slight

CCCCCC(=O)O[C@H]1[C@H]2C(=C(O)[C@]3(O)C(=O)C(C(N)=O)=C(O)[C@@H](N(C)C)[C@H]13)C(=O)c1c(O)cccc1[C@@H]2C [5-hexanoate doxycycline]
Activity in Worm Assay [1]: slight

CCC(=O)O[C@H]1[C@H]2C(=C(O)[C@]3(O)C(=O)C(C(N)=O)=C(O)[C@@H](N(C)C)[C@H]13)C(=O)c1c(O)cccc1[C@@H]2C [5-propionate doxycycline]
Activity in Worm Assay [1]: inactive

CN(C)[C@@H]1C(O)=C(C(N)=O)C(=O)[C@@]2(O)C(O)=C3C(=O)c4c(O)ccc(/C=C/c5ccccc5)c4C[C@H]3C[C@@H]12 [7-(1-styrylphenyl) sancycline]
Activity in Worm Assay [1]: inactive

CN(C)[C@@H]1C(O)=C(C(N)=O)C(=O)[C@@]2(O)C(O)=C3C(=O)c4c(O)ccc(-c5ccc(F)cc5)c4C[C@H]3C[C@@H]12 [7-(4-fluoro-phenyl)sancycline]
Activity in Worm Assay [1]: inactive

CN(C)[C@@H]1C(O)=C(C(N)=O)C(=O)[C@@]2(O)C(O)=C3C(=O)c4c(O)ccc(Br)c4C[C@H]3C[C@@H]12 [7-bromo sancycline]
induction of MSR and in particular mitohormesis [1]: strongly induce MSR | MIC for E. coli (E. coli): significantly higher MIC | MIC for P. aeruginosa (P. aeruginosa): significantly higher MIC

CCCCc1ccc(O)c2c1C[C@H]1C[C@H]3[C@H](N(C)C)C(O)=C(C(N)=O)C(=O)[C@@]3(O)C(O)=C1C2=O [7-butyl sancycline]
Activity in Worm Assay [1]: slight

CN(C)[C@@H]1C(O)=C(C(N)=O)C(=O)[C@@]2(O)C(O)=C3C(=O)c4c(O)ccc(C5CCCC5)c4C[C@H]3C[C@@H]12 [7-cyclopentyl sancycline]
Activity in Worm Assay [1]: inactive

CN(C)c1cc(-c2sccc2C(=O)O)c(O)c2c1C[C@H]1C[C@H]3[C@H](N(C)C)C(O)C(C(N)=O)C(=O)[C@@]3(O)C(O)=C1C2=O (stereo partly drawn) [9-(2′carboxy-1′-thiophene) minocycline]
Activity in Worm Assay [1]: inactive

CN(C)c1cc(NC(=O)Nc2cc(C(F)(F)F)cc(C(F)(F)F)c2)c(O)c2c1C[C@H]1C[C@H]3[C@H](N(C)C)C(O)=C(C(N)=O)C(=O)[C@@]3(O)C(O)=C1C2=O [9-(3,5-trifluoromethyl-phenylurea) aminominocycline]
Activity in Worm Assay [1]: inactive

CN(C)c1cc(-c2ccc(C(=O)O)s2)c(O)c2c1C[C@H]1C[C@H]3[C@H](N(C)C)C(O)=C(C(N)=O)C(=O)[C@@]3(O)C(O)=C1C2=O [9-(4′-carboxy-1′-thiophene) minocycline]
Activity in Worm Assay [1]: inactive

CN(C)c1cc(NC(=O)CN2CCCC2)c(O)c2c1C[C@H]1C[C@H]3[C@H](N(C)C)C(O)=C(C(N)=O)C(=O)[C@@]3(O)C(O)=C1C2=O [9-(pyrrolidinyl-methylcarbonyl) aminominocycline]
Activity in Worm Assay [1]: inactive

CC(=O)Nc1ccc2c(c1O)C(=O)C1=C(O)[C@]3(O)C(=O)C(C(N)=O)=C(O)[C@@H](N(C)C)[C@@H]3[C@@H](O)[C@@H]1[C@H]2C [9-acetylamino doxycycline]
Activity in Worm Assay [1]: inactive

CCc1ccc2c(c1O)C(=O)C1=C(O)[C@]3(O)C(=O)C(C(N)=O)=C(O)[C@@H](N(C)C)[C@@H]3[C@@H](O)[C@@H]1[C@H]2C [9-ethyl doxycycline]
Activity in Worm Assay [1]: inactive

CCc1cc(N(C)C)c2c(c1O)C(=O)C1=C(O)[C@]3(O)C(=O)C(C(N)=O)=C(O)[C@@H](N(C)C)[C@@H]3C[C@@H]1C2 [9-ethyl minocycline]
Activity in Worm Assay [1]: inactive

CCOC(=O)/C=C/c1ccc2c(c1O)C(=O)C1=C(O)[C@]3(O)C(=O)C(C(N)=O)=C(O)[C@@H](N(C)C)[C@@H]3[C@@H](O)[C@@H]1[C@H]2C [9-ethylacrylate doxycycline]
Activity in Worm Assay [1]: slight

CN(C)[C@@H]1C(O)=C(C(N)=O)C(=O)[C@@]2(O)C(O)=C3C(=O)c4c(ccc(C(C)(C)C)c4O)C[C@H]3C[C@@H]12 [9-tert-butyl sancycline]
Activity in Worm Assay [1]: inactive

CN(C)c1ccc(OS(=O)(=O)C(F)(F)F)c2c1C[C@H]1C[C@H]3[C@H](N(C)C)C(O)=C(C(N)=O)C(=O)[C@@]3(O)C(O)=C1C2=O [10-triflate minocycline]
Activity in Worm Assay [1]: inactive

CN(C)c1ccc(O)c2c1C[C@H]1C[C@H]3[C@H](N(C)C)C(O)=C(C(N)=O)C(=O)[C@@]3(O)C3NN=C2C31 (stereo partly drawn) [11,12-pyrazolo minocycline]
Activity in Worm Assay [1]: inactive

CN(C)[C@@H]1C(O)=C(C(N)=O)C(=O)[C@@]2(O)C(O)=C3C(=O)c4c(O)cccc4/C(=C\c4ccc(Br)cc4)[C@H]3[C@H](O)[C@@H]12 [13-(4′-bromophenyl) methacycline]
Activity in Worm Assay [1]: slight

COc1ccc(/C=C2\c3cccc(O)c3C(=O)C3=C(O)[C@]4(O)C(=O)C(C(N)=O)=C(O)[C@@H](N(C)C)[C@@H]4[C@@H](O)[C@@H]32)cc1 [13-(4′-methoxyphenyl) methacycline]
Activity in Worm Assay [1]: slight

CN(C)[C@@H]1C(O)=C(C(N)=O)C(=O)[C@@]2(O)C(O)=C3C(=O)c4c(O)cccc4C(CSC4CCCC4)[C@H]3[C@H](O)[C@@H]12 (stereo partly drawn) [13-cyclopentylthio dihydro methacycline]
Activity in Worm Assay [1]: slight

CC(C)SCC1c2cccc(O)c2C(=O)C2=C(O)[C@]3(O)C(=O)C(C(N)=O)=C(O)[C@@H](N(C)C)[C@@H]3[C@@H](O)[C@@H]21 (stereo partly drawn) [13-isopropylthio dihydro methacycline]
Activity in Worm Assay [1]: slight

CN(C)[C@@H]1C(O)=C(C(N)=O)C(=O)[C@@]2(O)C(O)=C3C(=O)c4c(O)cccc4C(CSc4ccccc4)[C@H]3[C@H](O)[C@@H]12 (stereo partly drawn) [13-thiophenyl dihydro methacycline]
Activity in Worm Assay [1]: slight

CN(C)[C@@H]1C(O)=C(C(N)=O)C(=O)[C@@]2(O)C(O)=C3C(=O)c4c(O)cccc4S[C@H]3C[C@@H]12 [Thiatetracycline, reference compound]
Activity in Worm Assay [1]: inactive

CN(C)c1cc(NC(=O)CNC(C)(C)C)c(O)c2c1C[C@H]1C[C@H]3[C@H](N(C)C)C(O)=C(C(N)=O)C(=O)[C@@]3(O)C(O)=C1C2=O [Tygacil ™, reference compound]
UPR^mt activation (hsp-6::gfp reporter) [1]: did not activate | Activity in Worm Assay [1]: slight

Nc1ccn([C@H]2CC[C@@H](CO)O2)c(=O)n1 [ddC, 2′,3′-dideoxycytidine, reference compound]
effect on Dox-induced secretion of IFNβ [2]: abrogated

CN(C)[C@@H]1C(O)=C(C(N)=O)C(=O)[C@@]2(O)C(O)=C3C(=O)c4c(O)ccc(Cl)c4[C@@H](O)[C@H]3C[C@@H]12 [demeclocycline, reference compound]
Activity in Worm Assay [1]: slight

CN(C)c1ccc(O)c2c1C[C@H]1C[C@H]3[C@H](N(C)C)C(O)=C(C(N)=O)C(=O)[C@@]3(O)C(O)=C1C2=O [minocycline, reference compound]
UPR^mt activation (hsp-6::gfp reporter) [1]: did not activate | Activity in Worm Assay [1]: inactive

CN(C)[C@@H]1C(O)=C(C(N)=O)C(=O)[C@@]2(O)C(O)=C3C(=O)c4c(O)cccc4[C@@](C)(O)[C@H]3[C@H](O)[C@@H]12 [oxytetracycline, reference compound]
Activity in Worm Assay [1]: slight

Omadacycline [reference compound]
UPR^mt activation (hsp-6::gfp reporter) [1]: did not activate | Activity in Worm Assay [1]: inactive
